Test system: NCI-H211 complex spheroid viability
Assay: Anticancer human tumor NCI-H211 cell line growth inhibition [LSD1];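 also: luminescent viability read after seven days of drug exposure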;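 as to viability, T/C: 100% = DMSO vehicle control viability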
Details: for IC50: curve of first compound; for viability, T/C: stronger effect = lower value
Summary of the method: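 Complex spheroids of tumor cells with HUVEC and human MSCs, exposed to iadademstat combined with other agents. Each agent tested in half-log steps from near clinical Cmax (else 10 microM top), DMSO ≤0.25%.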

Nc1ccn(C2OC(CO)C(O)C2(F)F)c(=O)n1 (stereo not given) + NC1CC1c1ccc(-c2cccc(O)c2)cc1
IC50 (second compound 0.1 µM): < 949 pM | IC50 (second compound 0.316 µM): < 949 pM | IC50 (second compound 1 µM): < 949 pM | IC50 (second compound 3.16 µM): < 949 pM | IC50 (second compound 10 µM): < 949 pM | viability, T/C (second compound 0.1 µM, first compound 0.000949 µM): 4.79% | viability, T/C (second compound 0.1 µM, first compound 0.003 µM): 3.12% | viability, T/C (second compound 0.1 µM, first compound 0.00949 µM): 3.86% | viability, T/C (second compound 0.1 µM, first compound 0.03 µM): 4.15% | viability, T/C (second compound 0.1 µM, first compound 0.0949 µM): 4.2% | viability, T/C (second compound 0.1 µM, first compound 0.3 µM): 3.74% | viability, T/C (second compound 0.316 µM, first compound 0.000949 µM): 3.95% | viability, T/C (second compound 0.316 µM, first compound 0.003 µM): 4.1% | viability, T/C (second compound 0.316 µM, first compound 0.00949 µM): 4.15% | viability, T/C (second compound 0.316 µM, first compound 0.03 µM): 3.65% | viability, T/C (second compound 0.316 µM, first compound 0.0949 µM): 3.64% | viability, T/C (second compound 0.316 µM, first compound 0.3 µM): 3.81% | viability, T/C (second compound 1 µM, first compound 0.000949 µM): 3.83% | viability, T/C (second compound 1 µM, first compound 0.003 µM): 4.15% | viability, T/C (second compound 1 µM, first compound 0.00949 µM): 4.41% | viability, T/C (second compound 1 µM, first compound 0.03 µM): 3.58% | viability, T/C (second compound 1 µM, first compound 0.0949 µM): 3.35% | viability, T/C (second compound 1 µM, first compound 0.3 µM): 4.53% | viability, T/C (second compound 3.16 µM, first compound 0.000949 µM): 5.21% | viability, T/C (second compound 3.16 µM, first compound 0.003 µM): 4.54% | viability, T/C (second compound 3.16 µM, first compound 0.00949 µM): 4.13% | viability, T/C (second compound 3.16 µM, first compound 0.03 µM): 4.09% | viability, T/C (second compound 3.16 µM, first compound 0.0949 µM): 3.28% | viability, T/C (second compound 3.16 µM, first compound 0.3 µM): 4.65% | viability, T/C (second compound 10 µM, first compound 0.000949 µM): 4.67% | viability, T/C (second compound 10 µM, first compound 0.003 µM): 4.95% | viability, T/C (second compound 10 µM, first compound 0.00949 µM): 4.53% | viability, T/C (second compound 10 µM, first compound 0.03 µM): 5.27% | viability, T/C (second compound 10 µM, first compound 0.0949 µM): 3.89% | viability, T/C (second compound 10 µM, first compound 0.3 µM): 4.22%
